According to ChEMBL document CHEMBL1152847, “Molecular modeling and inhibition of phospholipase A2 by polyhydroxy phenolic compounds” (Eur J Med Chem, 2009):
Calls of active or inactive are those of the source. The calls are words filed in the database; no cut-off is given here.

What was measured:
[1] = system: Crotalus adamanteus; assay: Activity of Crotalus adamanteus venom PLA2 assessed as 1-hexadecanoyl-2-(1-pyrenedecanoyl)-sn-glycero-3-phosphoglycerol hydrolysis at 0.15 uM
[2] = system: Crotalus adamanteus; assay: Inhibition of Crotalus adamanteus venom PLA2-induced edema in Swiss mouse at 50 ug, id; format: functional, organism-based
[3] = Inhibition of Crotalus adamanteus venom PLA2 assessed as effect on 1-hexadecanoyl-2-(1-pyrenedecanoyl)-sn-glycero-3-phosphoglycerol hydrolysis at 0.15 uM
[4] = system: Crotalus adamanteus; assay: Activity of Crotalus adamanteus venom PLA2 assessed as 1-hexadecanoyl-2-(1-pyrenedecanoyl)-sn-glycero-3-phosphoglycerol hydrolysis at 0.30 uM
[5] = Inhibition of Crotalus adamanteus venom PLA2 assessed as effect on 1-hexadecanoyl-2-(1-pyrenedecanoyl)-sn-glycero-3-phosphoglycerol hydrolysis at 0.30 uM

Compound	Km [1] [mM]	Vmax [1] [nmol/min]	Activity [2]	Ki [3] [nM]	Km [4] [mM]	Vmax [4] [nmol/min]	Ki [5] [nM]
Oc1cc(O)cc(O)c1 [PHLOROGLUCINOL]	12.1	18.1	Active	8.77	23.2	18	8.86
Oc1cccc(O)c1 [RESORCINOL]	12.6	18.1	Active	8.83	24.8	18	8.72
CC(=O)c1c(O)cc(O)cc1O [2,4,6-TRIHYDROXYACETOPHENONE]	15.1	18	Active	8.9	28.2	18.3	8.74
CC(=O)c1c(O)cccc1O	4.25	18.2	–	30.1	7.78	18	31.2
CC(=O)c1ccc(O)cc1O	4.03	18.1	–	33.3	7.57	18.2	32.1
